Test results as given in ChEMBL document CHEMBL1127937, “Dual metalloprotease inhibitors. I. constrained peptidomimetics of mercaptoacyl dipeptides” (Bioorg Med Chem Lett, 1994).

Tests used:
[1] = target: Angiotensin-converting enzyme (Homo sapiens, UniProt P12821); assay: Tested in vitro for inhibition of Angiotensin converting enzyme (ACE); settings: read-out: I50
Neprilysin = Neprilysin (Homo sapiens, UniProt P08473); assay: Tested in vitro for inhibition of neutral endopeptidase (NEP); settings: read-out: I50
Rattus norvegicus = assay: Tested in vivo for inhibition of angiotensin I -induced pressor response in normotensive rats after iv administration; type: functional

Sequence of Angiotensin-converting enzyme (P12821 whole entry): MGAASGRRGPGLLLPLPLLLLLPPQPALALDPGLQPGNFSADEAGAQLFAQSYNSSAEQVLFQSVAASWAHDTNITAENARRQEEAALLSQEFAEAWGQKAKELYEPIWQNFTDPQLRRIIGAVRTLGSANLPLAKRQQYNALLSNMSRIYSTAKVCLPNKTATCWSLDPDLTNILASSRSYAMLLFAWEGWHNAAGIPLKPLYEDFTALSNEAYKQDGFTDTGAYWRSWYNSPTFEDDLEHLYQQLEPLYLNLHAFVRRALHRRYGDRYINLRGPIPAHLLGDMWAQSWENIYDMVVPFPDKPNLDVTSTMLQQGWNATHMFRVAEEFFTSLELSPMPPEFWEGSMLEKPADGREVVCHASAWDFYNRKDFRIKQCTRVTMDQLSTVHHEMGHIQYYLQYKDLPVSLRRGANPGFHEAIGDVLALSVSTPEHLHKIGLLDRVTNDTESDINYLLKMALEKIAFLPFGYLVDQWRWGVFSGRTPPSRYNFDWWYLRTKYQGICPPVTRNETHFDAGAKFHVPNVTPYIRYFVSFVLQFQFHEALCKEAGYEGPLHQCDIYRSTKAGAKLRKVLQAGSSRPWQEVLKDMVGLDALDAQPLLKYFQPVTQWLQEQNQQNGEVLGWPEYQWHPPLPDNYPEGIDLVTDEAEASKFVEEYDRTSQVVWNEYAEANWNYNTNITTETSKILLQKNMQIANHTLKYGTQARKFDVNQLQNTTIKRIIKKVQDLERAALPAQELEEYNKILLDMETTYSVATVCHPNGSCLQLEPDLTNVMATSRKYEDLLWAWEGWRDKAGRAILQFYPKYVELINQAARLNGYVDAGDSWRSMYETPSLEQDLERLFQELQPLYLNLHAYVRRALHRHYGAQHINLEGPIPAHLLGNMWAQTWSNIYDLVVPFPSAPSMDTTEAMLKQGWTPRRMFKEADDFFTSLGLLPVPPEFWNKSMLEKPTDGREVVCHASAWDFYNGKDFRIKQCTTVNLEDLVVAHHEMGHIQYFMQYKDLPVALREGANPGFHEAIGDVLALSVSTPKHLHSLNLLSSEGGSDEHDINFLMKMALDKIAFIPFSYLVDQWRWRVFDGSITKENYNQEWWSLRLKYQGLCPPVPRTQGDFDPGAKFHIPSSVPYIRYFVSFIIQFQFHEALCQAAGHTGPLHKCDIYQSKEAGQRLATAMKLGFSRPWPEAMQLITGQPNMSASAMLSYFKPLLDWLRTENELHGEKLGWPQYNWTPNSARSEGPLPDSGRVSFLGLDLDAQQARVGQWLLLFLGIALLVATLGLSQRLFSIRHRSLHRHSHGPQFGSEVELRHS
Sequence of Neprilysin (P08473 whole entry): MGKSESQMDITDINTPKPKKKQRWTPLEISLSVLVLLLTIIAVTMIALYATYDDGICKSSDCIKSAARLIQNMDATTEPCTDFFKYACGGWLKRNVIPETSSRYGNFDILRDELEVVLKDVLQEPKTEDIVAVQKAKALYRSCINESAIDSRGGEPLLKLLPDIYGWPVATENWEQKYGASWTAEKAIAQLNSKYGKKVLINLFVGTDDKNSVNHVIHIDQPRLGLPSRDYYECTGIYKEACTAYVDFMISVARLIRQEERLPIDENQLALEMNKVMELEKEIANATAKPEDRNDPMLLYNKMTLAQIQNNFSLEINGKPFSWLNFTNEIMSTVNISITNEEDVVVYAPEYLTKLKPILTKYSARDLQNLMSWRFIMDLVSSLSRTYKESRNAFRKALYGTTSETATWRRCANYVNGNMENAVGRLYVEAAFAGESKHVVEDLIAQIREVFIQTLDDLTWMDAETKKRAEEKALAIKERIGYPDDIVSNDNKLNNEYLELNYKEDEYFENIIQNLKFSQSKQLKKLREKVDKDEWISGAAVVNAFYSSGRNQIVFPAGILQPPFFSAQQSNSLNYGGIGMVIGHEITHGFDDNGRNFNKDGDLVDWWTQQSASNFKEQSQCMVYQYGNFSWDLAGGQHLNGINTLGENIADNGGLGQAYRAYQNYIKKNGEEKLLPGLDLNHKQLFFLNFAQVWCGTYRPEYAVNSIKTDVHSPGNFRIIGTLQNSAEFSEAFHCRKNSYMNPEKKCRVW

Structure (SMILES) | IC50 [1] | IC50 (Neprilysin) | ED50 (Rattus norvegicus)
C[C@H](NC(=O)[C@@H](S)Cc1ccccc1)C(=O)N1CCC[C@H]1C(=O)O | 30 nM | 400 nM | 0.06 µmol/kg
C[C@H](NC(=O)[C@@H](CS)Cc1ccccc1)C(=O)N1CCC[C@H]1C(=O)O | 4 nM | 6.6 nM | 0.5 µmol/kg
O=C(O)CN1C(=O)[C@@H](NC(=O)[C@@H](S)Cc2ccccc2)CCc2ccccc21 |  | 6.1 nM | 0.02 µmol/kg
C[C@@H]1Oc2ccccc2N(CC(=O)O)C(=O)[C@H]1NC(=O)[C@@H](S)Cc1ccccc1 | 36 nM | 5.2 nM | 2.1 µmol/kg
O=C(O)CN1C(=O)[C@@H](NC(=O)[C@@H](CS)Cc2ccccc2)COc2ccccc21 | 4.4 nM | 0.6 nM | 5.8 µmol/kg
O=C(O)CCN1C(=O)[C@@H](NC(=O)[C@@H](CS)Cc2ccccc2)CCc2ccccc21 | 36 nM | 1.7 nM | 13.3 µmol/kg
O=C(O)CN1C(=O)[C@@H](NC(=O)[C@@H](CS)Cc2ccccc2)CCc2ccccc21 | 4.8 nM | 2.1 nM | 0.52 µmol/kg
C[C@H]1Oc2ccccc2N(CCC(=O)O)C(=O)[C@H]1NC(=O)[C@@H](S)Cc1ccccc1 | 18 nM | 83 nM | 
C[C@H]1Oc2ccccc2N(CC(=O)O)C(=O)[C@H]1NC(=O)[C@@H](S)Cc1ccccc1 | 13 nM | 118 nM | 0.015 µmol/kg
O=C(O)CN1C(=O)[C@@H](NC(=O)[C@@H](S)Cc2ccccc2)COc2ccccc21 | 28 nM | 3.1 nM | 0.26 µmol/kg

Second part, led by results:

IC50 [1] | IC50 (Neprilysin) | Structure (SMILES) | ED50 (Rattus norvegicus)
13 nM | 64 nM | O=C(O)CN1C(=O)[C@@H](NC(=O)[C@@H](S)Cc2ccccc2)CSc2ccccc21 | 0.14 µmol/kg
14 nM | 2.2 nM | O=C(O)CCN1C(=O)[C@@H](NC(=O)[C@@H](S)Cc2ccccc2)CSc2ccccc21 | 0.33 µmol/kg
36 nM | 2.4 nM | O=C(O)CCN1C(=O)[C@@H](NC(=O)[C@@H](S)Cc2ccccc2)CCc2ccccc21 | 1.34 µmol/kg
31 nM | 1.2 nM | O=C(O)CCN1C(=O)[C@@H](NC(=O)[C@@H](S)Cc2ccccc2)COc2ccccc21 | 1.2 µmol/kg
17 nM | 1 nM | O=C(O)CN1C(=O)[C@@H](NC(=O)[C@@H](CS)Cc2ccccc2)CSc2ccccc21 | 4 µmol/kg
